Measurements taken from a melting point compilation (Tetko et al.; mined from patent text by program, amines drawn as free bases though some values may be those of a salt).

melting point [°C] | SMILES
252 to 253 | O=C(NC(Cc1ccc(OCc2ccccc2)cc1)C(=O)O)c1cn2cc(-c3ccc(Cl)cc3)cnc2n1 (stereo unspecified)
253 to 255 | Cc1nc(-n2ccc(NCc3ccccc3)cc2=O)sc1C(=O)NCc1ccccc1
86 to 88 | CCCCCCNC(=O)n1nc(Oc2c(Cl)cc(C(F)(F)F)cc2Cl)c(Cl)c1C
219 to 223 | Nc1ncnc2c1c(-c1cccc(CO)c1)nn2Cc1oc2ccccc2c(=O)c1-c1ccccc1
253 to 258 | Cc1ccc(C(=O)NCc2cc(C(C)(C)O)cc(C(F)(F)F)c2)cc1Nc1nccc(-c2cccnc2)n1
186 to 188 | O=C1c2ccccc2-c2c1c(N1CCN(c3ccccn3)CC1)nc1ccc(Br)cc21
228 to 245 | COC(=O)c1cccc(Nc2nc(-c3cccnc3)nc3ccccc23)c1
252 to 253 | Cc1cc(NC(=O)N2CCc3cc(N(C)C)ccc32)c2ccccc2n1
80 to 81 | CCOC(=O)CC(=O)Nc1cccc2ccccc12
182 to 184 | O=c1c(-c2cccc(C(F)(F)F)c2)c[nH]n1-c1cccc(Cl)c1
158 to 160 | COC(=O)c1ccc(NC(=O)c2sc3ccc(OC)cc3c2OC(C)C)cc1O
110 to 114 | COc1cc(Oc2cccc(C)c2)nc(C(=O)Nc2ccc(C)cc2)c1
172 to 173 | CCc1ccc(Cn2c(C)nc3ccc(C(=O)OC)nc32)c(Cl)c1
200 | O=C(O)c1coc(Cn2cc(C3c4ccccc4C=Cc4ccccc43)c(=S)[nH]c2=O)n1
195 to 198 | CCn1cc(C(=O)O)c(=O)c2cc(F)c(N3CC4CC3CN4Cc3ccccc3)c(F)c21 (stereo unspecified)
103 to 105 | CC(C)(C)C(O)c1ccc(C(=O)c2ccccc2)cc1 (stereo unspecified)
116 to 118 | COc1ccc(C(=O)O)nc1Oc1cccc(C(F)(F)F)c1

melting point [°C] | SMILES
198 to 202 | CC(C)(C)NCC(O)COc1cc(N)ccc1-c1ccc(=O)[nH]n1 (stereo unspecified)
282 to 284 | Cc1ccc(-c2c(C=O)n(C)c(=O)c3ncccc23)cc1
109 to 110 | CC(C)C1(c2ccccc2)OC(C(=O)OCc2cccnc2)=CC1=O (stereo unspecified)
98 to 101 | Cc1cc(C)c(S(=O)(=O)Oc2nc(Nc3ccc(F)cc3F)c(C(=O)n3ccnc3)cc2F)c(C)c1
115 to 118 | COc1cccc([C@H]2O[C@H](CC(=O)Nc3cc(CCCCC(=O)O)ccc3F)C(=O)N(CC(C)(C)CO)c3ccc(Cl)cc32)c1OC
178 to 179 | N#CCCNC(=O)c1cccc(-c2cccc3nn(Cc4cccc(C(F)(F)F)c4)cc23)n1
332 to 341 | Cc1[nH]cc2c(=O)n(-c3ccc(Cl)cc3)nc-2c1-c1cccc(NS(C)(=O)=O)c1
68 to 70 | Cc1cc(C)cc(-c2cccc3ccccc23)c1
195 to 198 | COc1ccc(-c2cc(-c3cc(C)ns3)c(=O)n(C)c2-c2ccncc2)cc1
179 to 181 | O=C(O)Cc1nn(Cc2ccc(Br)cc2)c(=O)c2ccccc12
112 | O=C(O)CCCc1nc(NCc2ccc3c(c2)OCO3)c2cc(Cl)sc2n1
187 | CC(C)c1ccc(N(Cc2ccc(N(C)C)nc2)C(=O)C2CCCc3c(O)cccc32)cc1 (stereo unspecified)
140 to 142 | CN(CC#Cc1cc(CN2CCOCC2)cc2c(=O)c(C(=O)NCc3ccc(Cl)cc3)cn(C)c12)CC(O)CO (stereo unspecified)
100 to 102 | CCCCc1nn(-c2cc(NC(=O)COCC)ccc2Cl)c(=O)n1Cc1ccc(-c2ccccc2S(=O)(=O)NC(=O)OC(C)(C)C)cc1F
145 to 147 | CC(C)(CNc1ccnc2cc(Cl)ccc12)NCc1ccc(C(F)(F)F)cc1
154 to 155 | CC(=O)Nc1ccc(C)c(NCCS(=O)(=O)F)c1
237 to 239 | COCC(=O)Nc1cccc2c1C1(COc3cc4c(cc31)OCCO4)C(=O)N2C (stereo unspecified)

Further lines, the compound ahead of its results:

SMILES | melting point [°C]
O=C(Oc1cc(Cl)ccc1Cl)c1cc2ccccc2oc1=O | 189 to 192
CC1(N)CN(c2c(F)cc3c(=O)c4c(=O)[nH]sc4n(C4CC4)c3c2F)C1 | 294 to 300
CCOc1cc(Cc2cnc(N)nc2N)cc2c1OC(C)(C)C=C2C#CC(C)O (stereo unspecified) | 218 to 219
COc1cccc(C(=O)N2CCN(CC3(C)Cc4c(C)c(N)c(C)c(C)c4O3)CC2)c1 (stereo unspecified) | 95 to 98
Cc1ccc(N)c(C(=O)c2ccc(F)cc2)c1 | 70 to 71.5
O=CN(O)[C@@H](CCCO)CS(=O)(=O)c1ccc(Oc2ccc(OC(F)(F)F)cc2)cc1 | 85 to 86
CCOC(=O)c1c(C)nc(NCCCN(C)C)c2nccnc12 | 55 to 57
CC(=O)OC1CCC2(C)C(=CC(=O)C3C2CCC2(C)C(OC(C)=O)CCC32)C1 (stereo unspecified) | 220 to 221
O=C(O)Cc1cccc(NC(=O)NC2C(=O)N(CC(=O)N3CCCC3)c3ccccc3N(CC(=O)N3CCCC3)C2=O)c1 | 228 to 230
O=c1[nH]c2cc(Br)c(F)c([N+](=O)[O-])c2[nH]c1=O | 316 to 321
COC(=O)CCc1ccc(N2CCN(CCCCC#N)C2=O)cc1 | 99 to 101
CC12C=CCC1C1CCC3CC(=O)CCC3C1CC2 (stereo unspecified) | 51 to 54
O=C1Nc2c(ccc3ccccc23)SC1Cc1ccc(Cl)cc1 (stereo unspecified) | 185 to 186
CCCCCCCCCCCCCCCCCCN(C)P1OCC2(CO1)COP(N(C)CCCCCCCCCCCCCCCCCC)OC2 (stereo unspecified) | 70 to 72
c1ccc(-c2cc3ccccc3o2)nc1 | 86 to 87
CCOC(=O)Cc1c(C(=O)O)c(CC)c(C(=O)c2ccc(Cl)cc2)n1C | 184 to 186
CC(=O)NC[C@H]1CN(c2ccc(N3CCC(=C(C#N)C#N)CC3)c(F)c2)C(=O)O1 | 158 to 160
Cc1cc(Oc2ccc([N+](=O)[O-])c(N(C)C(=O)OC(C)(C)C)c2)cc(C)c1NC(=O)OC(C)(C)C | 154 to 156
O=C(O)CCc1ccc(OCc2ccccc2)cc1OCc1ccccc1 | 125 to 127
CCCc1c(OCCCCCOc2ccc3cc(OCC(=O)O)ccc3c2CCC(=O)O)ccc2c1OCCC2=O | 160 to 163
CCc1ccc(-c2ccc(I)cc2)cc1 | 145 to 149

SMILES | melting point [°C]
CON1CCn2c(OC(=O)C(C)(C)C)c(-c3c(C)cc(C)cc3C)c(=O)n2CC1 | 147 to 148
O=C(O)C=C1CC(C(=O)OCc2ccccc2)Nc2cc(Cl)cc(Cl)c21 (racemic) | 210 to 212
CCCCCCCCCCCCCCCCCC(=O)ON1C(C)(C)CC(OC(=O)c2ccccc2)CC1(C)C | 85 to 89
O=C(O)c1cc2ccsc2nc1C(=O)O | 272 to 275
COc1cc2c(cc1OC)CN(c1nc(N)nc(Cl)n1)CC2 | 196 to 197
CCOC(=O)C1=C(C)NC(C)=C(C(=O)OCC)C1c1ccccc1O | 159 to 161
COc1ccccc1C1(O)C(O)CC(c2ccccc2)(c2ccccc2)C2CN(C(=O)Cc3ccccc3O)CC21 (stereo unspecified) | 188 to 190
CCCc1nc2ccc(NS(C)(=O)=O)cc2n1Cc1ccccc1Cl | 191 to 193
N#Cc1c(N2CCN(C(=O)c3cccs3)CC2)c2cc(Cl)cnc2n(CC(=O)c2ccccc2)c1=O | 316
CCOC(=O)CC(O)CCCCCNC(=O)OCc1ccccc1 (stereo unspecified) | 47 to 50
CN1[C@H]2CC[C@@H]1[C@H](C(=O)Oc1ccc(Cl)cc1)[C@@H](c1ccc(F)cc1)C2 | 64 to 66
Cn1c(=Nc2ccc(Cl)cc2)sc2ncccc2c1=O | 142 to 143
CCCCOc1nc(N)c2nc(OC)n(CCCCNCCOC)c2n1 | 99 to 100
CNCCc1c[nH]c2ccc3c(=O)[nH]ccc3c12 | 160
CCCOc1ccc(OCCCCC(=O)O)c(C=O)c1O | 78 to 79
CN(C(=O)C1CCCN(c2ccc([N+](=O)[O-])c(C=C3NC(=O)NC3=O)c2)C1)C1CCCCC1 (stereo unspecified) | 153 to 162
Cc1cc(C(=O)NC(C#N)c2ccccc2)n(C)n1 (stereo unspecified) | 135 to 136
C=CCSC[C@H](NC(=O)OC(C)(C)C)C(=O)OC | 37 to 38
CC(=O)C(=O)NC(=O)[C@@H](N)Cc1ccccc1 | 138 to 140
CN1CCC(Oc2ccc([N+](=O)[O-])cc2)(c2ccccc2)CC1 | 136 to 138
O=C1CC(C(F)(F)F)CC(=O)N1c1ccc(Br)cc1 | 163 to 164

SMILES | melting point [°C]
CC1=C(C(=O)O)N2C(=O)C(NC(=O)Cc3ccc(CN=[N+]=[N-])cc3)C2SC1 (stereo unspecified) | 154 to 155
CCN1NN(N)N=C1C | 45 to 50
COC(=O)C(C)(N)Cc1c[nH]c2ccc(Cl)cc12 (racemic) | 170
Cc1c(OCc2nnn[nH]2)cc2c(c1Cl)C(=O)C1(CCCC1)C2=O | 211
CCOC(=O)COCC(=O)c1ccccc1 | 33 to 35
CC(=O)C(=Cc1ccc2c(c1)OCO2)C(C)=O | 79 to 80
CN(C)C(=O)N[C@H]1CC[C@H](CCN2CCC(c3cccc4c3CCO4)CC2)CC1 | 260
O=c1oc2c(c(O)c1C(c1ccccc1)C1CC1)CCCCCC2CC1CCOC1 (stereo unspecified) | 80 to 84
CC1(C)CC(=O)Nc2c(CCN3CCN(C4=NS(=O)c5ccccc54)CC3)cc(F)cc21 (stereo unspecified) | 235
O=c1[nH]c(=S)[nH]c2ccnn12 | 295
CCOP(=O)(CCCCCCCOc1nc(-c2ccccc2)c(-c2ccccc2)n1-c1ccccc1)OCC | 76 to 77
CCn1ncc2c(NC3CCc4ccccc43)c3ccccc3nc21 (stereo unspecified) | 233 to 235
N#Cc1cc(Cc2cccc(Cl)c2)ccc1N | 84.5 to 85.5
COC(=O)C1CCC2C3CCC4CC(C)(O)CCC4(C)C3C(=O)CC12C (stereo unspecified) | 150
COc1cccc2c(CC(=O)OCC(=O)CCc3ccccc3)coc12 | 68 to 69
Oc1ccc([C@H]2CC[C@@H](NCCOc3ccccc3)CC2)cc1 | 149 to 154
CC(=O)Nc1ccc2c(c1)C(=O)C1(CC1)O2 | 211 to 212
O=C1NCCC12CCCN2Cc1ccccc1 (stereo unspecified) | 152 to 153
N#Cc1cccc(CN2C(=O)NC(c3ccccc3)(c3ccccc3)C2=O)c1 | 160 to 164
CCC12CCC3=C(CC(C)c4cc(OC)ccc43)C1CCC21OCCO1 (stereo unspecified) | 122 to 124
